How the values were obtained:
Assay in all cases: Test C pre-/postemergence herbicide test
[1] = test system: surinam grass; type: in vivo, Brachiaria decumbens
Description: (§1) Seeds of plant species selected from blackgrass (Alopecurus myosuroides), ryegrass, Italian (Italian ryegrass, Lolium multiflorum), wheat (winter wheat, Triticum aestivum), galium (catchweed bedstraw, Galium aparine), corn (Zea mays), crabgrass, large (large crabgrass, Digitaria sanguinalis), foxtail, giant (giant foxtail, Setaria faberii), johnsongrass (Sorghum halepense), lambsquarters (Chenopodium album), morningglory (Ipomoea coccinea), nutsedge, yellow (yellow nutsedge, Cyperus esculentus), pigweed (Amaranthus retroflexus), ragweed (common ragweed, Ambrosia elatior), soybean (Glycine max), barnyardgrass (Echinochloa crus-galli), oilseed rape (Brassica napus), waterhemp (common waterhemp, Amaranthus rudis), kochia (Kochia scoparia), oat, wild (wild oat, Avena fatua), surinam grass (Brachiaria decumbens), foxtail, green (green foxtail, Setaria viridis), goosegrass (Eleusine indica), bromegrass, downy (downy bromegrass, Bromus tectorum), nightshade (eastern black nightshade, Solanum ptycanthum), cocklebur (common cocklebur, Xanthium strumarium), cupgrass, woolly (woolly cupgrass, Eriochloa villosa), bermudagrass (Cynodon dactylon), sunflower, (common oilseed sunflower, Helianthus annuus), Russian thistle (Salsola kali) and velvetleaf (Abutilon theophrasti) were planted into a blend of loam soil and sand and treated preemergence with test chemicals formulated in a non-phytotoxic solvent mixture which included a surfactant. At the same time, plants selected from these crop and weed species and also barley (winter barley, Hordeum vulgare), […]), chickweed (common chickweed, Stellaria media), deadnettle (henbit deadnettle, Lamium amplexicaule), and canarygrass (littleseed canarygrass, Phalaris minor) were planted in pots containing Redi-Earth® planting medium (Scotts Company, 14111 Scottslawn Road, Marysville, Ohio 43041) comprising spaghnum peat moss, vermiculite, wetting agent and starter nutrients and treated with postemergence applications of test chemicals formulated in the same manner. Plants ranged in height from 2 to 18 cm (1- to 4-leaf stage) for postemergence treatments. Treated plants and controls were maintained in a greenhouse for 13 to 15 days, after which time all species were compared to controls and visually evaluated. Plant response ratings, summarized in Table C, are based on a scale of 0 to 100 where 0 is no effect and 100 is complete control. A dash (-) response means no test result.

[2] = test system: foxtail, green; type: in vivo, Setaria viridis
Outline: (§2)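 Plants grown and held in a greenhouse for 13 to 15 days post-spray, then rated 0–100 by visual comparison with controls. Pre treatments targeted seeds in loam and sand; post treatments targeted 1- to 4-leaf plants in peat-based potting medium.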

[3] = test system: goosegrass; type: in vivo, Eleusine indica
Outline: as §2

[4] = test system: bromegrass, downy; type: in vivo, Bromus tectorum
Description: as §1

[5] = test system: nightshade; type: in vivo, Solanum ptycanthum; settings: Preemergence
Outline: as §2

[6] = test system: cocklebur; type: in vivo, Xanthium strumarium
Outline: as §2

[7] = test system: bermudagrass; type: in vivo, Cynodon dactylon
Description: as §1

[8] = test system: sunflower; type: in vivo, Helianthus annuus; settings: Preemergence
Description: as §1

[9] = test system: Russian thistle; type: in vivo, Salsola kali; settings: Preemergence
Outline: as §2

[10] = Preemergence, 62 g ai/ha, scale 0 to 100
[11] = Preemergence, 125 g ai/ha, scale 0 to 100 (0 no effect, 100 complete control)
[12] = Preemergence, 31 g ai/ha, scale 0 to 100 (0 no effect, 100 complete control)
[13] = Preemergence, 250 g ai/ha, scale 0 to 100 (0 no effect, 100 complete control)
[14] = 125 g ai/ha, scale 0 to 100 (0 no effect, 100 complete control)
[15] = Postemergence, 31 g ai/ha, scale 0 (no effect) to 100 (complete control)
[16] = Postemergence, 62 g ai/ha, scale 0 to 100 (0 no effect, 100 complete control)
[17] = Postemergence, 125 g ai/ha, scale 0 to 100 (0 no effect, 100 complete control)
[18] = Postemergence, 250 g ai/ha, scale 0 to 100 (0 no effect, 100 complete control)
[19] = Preemergence, 31 g ai/ha, scale 0 to 100, 0 is no effect and 100 is complete control
[20] = 31 g ai/ha, scale 0 to 100, 0 is no effect and 100 is complete control

Structure (SMILES): Cc1ccccc1NC(=O)C1C(=O)NCC1c1cc(F)c(F)c(F)c1 (racemic) [Compound 35]
- Plant response rating, Surinam Grass [1, 10]: 90
- Plant response rating, Surinam Grass [1, 11]: 100
- Foxtail, Green plant response rating [2, 12]: 90
- Plant response rating, Foxtail, Green [2, 10]: 98
- Plant response rating, Foxtail, Green [2, 11]: 98
- Plant response rating, Foxtail, Green [2, 13]: 98
- Goosegrass plant response rating [3, 12]: 0
- Plant response rating, Goosegrass [3, 10]: 0
- Plant response rating, Goosegrass [3, 11]: 5
- Bromegrass, Downy plant response rating [4, 12]: 0
- Plant response rating, Bromegrass, Downy [4, 10]: 0
- Plant response rating, Bromegrass, Downy [4, 11]: 5
- Plant response rating, Bromegrass, Downy [4, 13]: 40
- Plant response rating, Nightshade ([5]; 62 g ai/ha, scale 0 to 100): 0
- Plant response rating, Nightshade [5, 14]: 0
- Cocklebur plant response rating [6, 12]: 0
- Plant response rating, Cocklebur [6, 10]: 0
- Plant response rating, Cocklebur [6, 11]: 0
- Plant response rating, Cocklebur [6, 13]: 0
- Bermudagrass plant response rating [7, 12]: 0
- Plant response rating, Bermudagrass [7, 10]: 0
- Plant response rating, Bermudagrass [7, 11]: 0
- Plant response rating, Bermudagrass [7, 13]: 75
- Plant response rating Sunflower ([8]; 62 g ai/ha, scale 0 to 100): 0
- Plant response rating Sunflower [8, 14]: 10
- Plant response rating, Russian Thistle ([9]; 62 g ai/ha, scale 0 to 100): 0

Structure (SMILES): O=C1NCC(c2ccccc2)C1C(=O)Nc1ccccc1F (racemic) [Compound 81]
- Plant response rating, Surinam Grass [1, 15]: 0
- Plant response rating, Surinam Grass [1, 16]: 0
- Plant response rating, Surinam Grass [1, 17]: 0
- Plant response rating, Surinam Grass [1, 18]: 0
- Surinam Grass plant response rating [1, 19]: 0
- Plant response rating, Surinam Grass [1, 10]: 53
- Plant response rating, Surinam Grass [1, 11]: 77
- Plant response rating (scale of 0 to 100), Surinam Grass ([1]; Preemergence, 250 g ai/ha): 90
- Plant response rating, Foxtail, Green [2, 15]: 5
- Plant response rating, Foxtail, Green [2, 16]: 5
- Plant response rating, Foxtail, Green [2, 17]: 20
- Plant response rating, Foxtail, Green [2, 18]: 48
- Foxtail, Green plant response rating [2, 19]: 20
- Plant response rating, Foxtail, Green [2, 10]: 67
- Plant response rating, Foxtail, Green [2, 11]: 80
- Plant response rating (scale of 0 to 100), Foxtail, Green ([2]; Preemergence, 250 g ai/ha): 90
- Plant response rating, Goosegrass [3, 15]: 0
- Plant response rating, Goosegrass [3, 16]: 0
- Plant response rating, Goosegrass [3, 17]: 0
- Plant response rating, Goosegrass [3, 18]: 0
- Goosegrass plant response rating [3, 19]: 0
- Plant response rating, Goosegrass [3, 10]: 0
- Plant response rating, Goosegrass [3, 11]: 0
- Plant response rating (scale of 0 to 100), Goosegrass ([3]; Preemergence, 250 g ai/ha): 0
- Plant response rating, Bromegrass, Downy [4, 15]: 0
- Plant response rating, Bromegrass, Downy [4, 16]: 0
- Plant response rating, Bromegrass, Downy [4, 17]: 0
- Plant response rating, Bromegrass, Downy [4, 18]: 7
- Bromegrass, Downy plant response rating [4, 19]: 0
- Plant response rating, Bromegrass, Downy [4, 10]: 0
- Plant response rating, Bromegrass, Downy [4, 11]: 0
- Plant response rating (scale of 0 to 100), Bromegrass, Downy ([4]; Preemergence, 250 g ai/ha): 0
- Nightshade plant response rating [5, 20]: 0
- Plant response rating, Nightshade ([5]; 62 g ai/ha, scale 0 to 100): 0
- Plant response rating, Nightshade [5, 14]: 0
- Plant response rating (scale of 0 to 100), Nightshade ([5]; 250 g ai/ha): 0
- Plant response rating, Cocklebur [6, 15]: 0
- Plant response rating, Cocklebur [6, 16]: 0
- Plant response rating, Cocklebur [6, 17]: 0
- Plant response rating, Cocklebur [6, 18]: 0
- Cocklebur plant response rating [6, 19]: 0
- Plant response rating, Cocklebur [6, 10]: 0
- Plant response rating, Cocklebur [6, 11]: 0
- Plant response rating (scale of 0 to 100), Cocklebur ([6]; Preemergence, 250 g ai/ha): 0
- Plant response rating, Bermudagrass [7, 15]: 0
- Plant response rating, Bermudagrass [7, 16]: 0
- Plant response rating, Bermudagrass [7, 17]: 0
- Plant response rating, Bermudagrass [7, 18]: 0
- Bermudagrass plant response rating [7, 19]: 0
- Plant response rating, Bermudagrass [7, 10]: 0
- Plant response rating, Bermudagrass [7, 11]: 0
- Plant response rating (scale of 0 to 100), Bermudagrass ([7]; Preemergence, 250 g ai/ha): 0
- Sunflower plant response rating [8, 20]: 0
- Plant response rating Sunflower ([8]; 62 g ai/ha, scale 0 to 100): 0
- Plant response rating Sunflower [8, 14]: 0
- Plant response rating (scale of 0 to 100), Sunflower ([8]; 250 g ai/ha): 0
- Russian Thistle plant response rating [9, 20]: 0
- Plant response rating, Russian Thistle ([9]; 62 g ai/ha, scale 0 to 100): 0
- Plant response rating, Russian Thistle [9, 14]: 0
- Plant response rating (scale of 0 to 100), Russian Thistle ([9]; 250 g ai/ha): 0

Structure (SMILES): O=C1NCC(c2ccc(F)c(Cl)c2)C1C(=O)Nc1cccc(F)c1F (centres unmarked) [Compound 59]
- Plant response rating, Surinam Grass [1, 10]: 35
- Plant response rating, Surinam Grass [1, 11]: 60
- Foxtail, Green plant response rating [2, 12]: 85
- Plant response rating, Foxtail, Green [2, 10]: 90
- Plant response rating, Foxtail, Green [2, 11]: 90
- Plant response rating, Foxtail, Green [2, 13]: 98
- Goosegrass plant response rating [3, 12]: 15
- Plant response rating, Goosegrass [3, 10]: 25
- Plant response rating, Goosegrass [3, 11]: 35
- Bromegrass, Downy plant response rating [4, 12]: 0
- Plant response rating, Bromegrass, Downy [4, 10]: 0
- Plant response rating, Bromegrass, Downy [4, 11]: 0
- Plant response rating, Bromegrass, Downy [4, 13]: 20
- Plant response rating, Nightshade [5, 14]: 25
- Plant response rating, Cocklebur [6, 10]: 0
- Bermudagrass plant response rating [7, 12]: 20
- Plant response rating, Bermudagrass [7, 10]: 20
- Plant response rating, Bermudagrass [7, 11]: 40
- Plant response rating, Bermudagrass [7, 13]: 50
- Plant response rating Sunflower ([8]; 62 g ai/ha, scale 0 to 100): 5
- Plant response rating Sunflower [8, 14]: 15
- Plant response rating, Russian Thistle ([9]; 62 g ai/ha, scale 0 to 100): 0
- Plant response rating, Russian Thistle [9, 14]: 0

Structure (SMILES): O=C1NCC(c2ccc3c(c2)OC(F)(F)O3)C1C(=O)Nc1cccc(F)c1F (centres unmarked) [Compound 62]
- Plant response rating, Surinam Grass [1, 10]: 60
- Plant response rating, Surinam Grass [1, 11]: 80
- Foxtail, Green plant response rating [2, 12]: 75
- Plant response rating, Foxtail, Green [2, 10]: 90
- Plant response rating, Foxtail, Green [2, 11]: 90
- Plant response rating, Foxtail, Green [2, 13]: 90
- Goosegrass plant response rating [3, 12]: 10
- Plant response rating, Goosegrass [3, 10]: 25
- Plant response rating, Goosegrass [3, 11]: 70
- Bromegrass, Downy plant response rating [4, 12]: 0
- Plant response rating, Bromegrass, Downy [4, 10]: 0
- Plant response rating, Bromegrass, Downy [4, 11]: 0
- Plant response rating, Bromegrass, Downy [4, 13]: 0
- Plant response rating, Nightshade ([5]; 62 g ai/ha, scale 0 to 100): 15
- Cocklebur plant response rating [6, 12]: 0
- Plant response rating, Cocklebur [6, 11]: 0
- Plant response rating, Cocklebur [6, 13]: 5
- Bermudagrass plant response rating [7, 12]: 0
- Plant response rating, Bermudagrass [7, 10]: 30
- Plant response rating, Bermudagrass [7, 11]: 50
- Plant response rating, Bermudagrass [7, 13]: 60
- Plant response rating Sunflower ([8]; 62 g ai/ha, scale 0 to 100): 20
- Plant response rating Sunflower [8, 14]: 25
- Plant response rating, Russian Thistle ([9]; 62 g ai/ha, scale 0 to 100): 30
- Plant response rating, Russian Thistle [9, 14]: 85

Reference: patent US10294202B2, “Pyrrolidinones as herbicides” (FMC Corporation, priority 2013, dated 2019)
